Experimental data as given in patent US20240409935A1, “Atg8ylation coordinates stress granule formation and mTOR inactivation in response to lysosomal damage” (priority 2023, published 2024).

Experiments:
[1] = test system: DCP1a puncta (P-bodies) in U2OS cells; experiment: HCM quantification of DCP1a puncta (P-body formation) in U2OS cells; assay type: cell-based, human; conditions: 2 mM LLOMe for 30 min
[2] = test system: G3BP1 puncta in BMM (bone-marrow-derived macrophages); experiment: HCM quantification of G3BP1 puncta in BMM; assay type: cell-based, murine; conditions: 2 mM LLOMe for 2 h
Method: Three groups of proteins are labeled (ESCRT components in green, autophagy factors in blue and stress granule components in purple). […] The dotted orange line indicates the significance cut-off (P<0.05). […] The significant increased proteins in LysoIP LC/MS/MS were analyzed by STRING functional protein association networks. […] Strength, Log 10(observed/expected) describes how large the enrichment effect is. […] TMEM192-2×FLAG, control. […] U20S cells Were treated with Earle's Balanced Salt Solution (EBSS), 4 mM LOMe, 2 mM LLOMe, 200 μM GPN, or 400 μg/mL silica for 30 min. White masks, algorithm-defined cell boundaries (primary objects); red masks, computer-identified G3BP1 puncta (target objects). […] The level of phosphorylation of eIF2α (S51) is quantified based on three independent experiments. […] The level of ATF4 and phosphorylation of eIF2α (S51) and 4EBP1 (S65) are quantified based on three independent experiments. […]
The inventors tested whether lysosomal damage induces SG formation using the conventional marker of SGs G3BP1 (Jain et al., 2016; Kedersha et al., 2005; Yang et al., 2020). […] For unbiased quantification, the inventors employed high content microscopy (HCM), which depends on epifluorescence mode to capture all cellular profiles in a volume. […] In all cell lines and primary cells tested, SG formation was observed upon lysosomal damage and quantified by HCM.

[3] = test system: eIF2α (S51) phosphorylation; experiment: Immunoblot analysis of eIF2α (S51) phosphorylation in U2OS cells; assay type: cell-based, human; conditions: U2OS cells
[4] = test system: G3BP1+ SGs and lysosomes (LAMP2); experiment: HCM quantification of G3BP1+ SGs associated with lysosomes (LAMP2); assay type: cell-based; conditions: 30 min after exposure to LLOMe
Method: Do SGs induced by lysosomal damage associate with lysosomes? The inventors addressed this by imaging analysis. By confocal fluorescence microscopy, the majority of G3BP1-positive SGs formed during lysosomal damage were either independent of lysosomes or juxtaposed to lysosomes (FIG. 3SA). By HCM quantification, only 10% of G3BP1^+ SGs appeared associated with lysosomes (LAMP2) 30 min after exposure to lysosomal damaging agent LLOMe. The inventors then asked the question whether SGs formed in response to lysosomal damage initiate as a nidus on the lysosomal surface. Using live microscopy, the inventors observed that the majority of SGs Were forming in locations independent of lysosomes (FIG. 3SB).

NUFIP2 = experiment: Confocal microscopy of NUFIP2 localisation in Huh7 cells; assay type: cell-based, human; conditions: 2 mM LLOMe for 30 min
Method: Huh7 cells Were treated with 2 mM LLOMe for 30 min and stained for endogenous G3BP1 and NUFIP2. Scale bar, 5 μm. […] The sequence in red (SEQ ID NO: 1), predicted NLS in NUFIP2, was deleted for generating NUFIP2ΔNLS. […] FIG. 4SG show the quantification by HCM of overlaps between mTOR and LAMP2 in Gal8WT^HeLa or Gal8KO^HeLa cells treated with 2 mM LLOMe for 30 min. White masks, algorithm-defined cell boundaries. Yellow masks, computer-identified overlap of mTOR and LAMP2. […] Red masks, computer-identified G3BP1 puncta. Ctrl, control (untreated cells). Data, means±SEM; HCM: n≥3 (each experiment: 500 valid primary objects/cells per Well, ≥5 Well s/sample). †p≥0.05 (not significant), **p<0.01, ANOVA. See also FIG. 3 and FIG. 4.

mTOR = experiment: Immunoblot analysis of S6K1 (T389) phosphorylation in HeLa cells; assay type: cell-based, human; conditions: HeLa (WT) cells, 4 mM LLOMe for 30 min

## COC(=O)[C@H](CC(C)C)NC(=O)[C@@H](N)CC(C)C [LLOMe, L-leucyl-L-leucine methyl ester]
[1]
  P-body formation (DCP1a marker): did not induce P-body
[2]
  SG formation (G3BP1 puncta): SGs Were detected
[3]; 2 mM LLOMe 30 min followed by 1 h washout
  eIF2α pS51 response after LLOMe washout: subsided
[3]; 2 mM LLOMe for 30 min
  phosphorylation of eIF2α on Ser51: induced phosphorylation of eIF2α on Ser51
[3]; 2 mM LLOMe, later time points
  phosphorylated eIF2α at later times during treatment: reduced levels of phosphorylated eIF2α at later times
[3]; indicated dose of LLOMe for 30 min
  eIF2α phosphorylation, dose dependence: induced eIF2α phosphorylation
[4]
  G3BP1+ SGs associated with lysosomes (LAMP2): 10%
NUFIP2
  NUFIP2 localisation upon lysosomal damage: NUFIP2 translocated from the nucleus into the cytosol
mTOR
  pT389 S6K levels (mTOR activity): drop in pT389 S6K levels
